From paper PMC7177888, “Aryl-4,5-dihydro-1H-pyrazole-1-carboxamide Derivatives Bearing a Sulfonamide Moiety Show Single-digit Nanomolar-to-Subnanomolar Inhibition Constants against the Tumor-associated Human Carbonic Anhydrases IX and XII” (International Journal of Molecular Sciences, 2020) come the findings set out here.

Holding throughout (assay): stopped-flow CO2 hydrase assay
Type in all cases: biochemical

Assay [1] addresses T1, CA II (Homo sapiens, UniProt P00918).
T1 construct: gene CA2; recombinant, obtained in-house
The gist of the method: (§1)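 In-house recombinant human carbonic anhydrase isoforms were tested for CO2 hydration on an Applied Photophysics stopped-flow instrument, using 20 mM Hepes (pH 7.5), 20 mM Na2SO4 and 0.2 mM phenol red, with readings at 557 nm over 10–100 s and CO2 at 1.7–17 mM. Enzyme and inhibitor were preincubated for 15 min at room temperature, with dilutions made from 0.1 mM aqueous stocks down to 0.01 nM. Inhibition constants (Ki) were obtained by nonlinear least-squares fitting with the Cheng–Prusoff equation from initial rates corrected for the uncatalysed reaction. Each value is the mean of at least three determinations.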

In assay [2] the target is T2, CA IX (Homo sapiens, UniProt Q16790).
T2 construct: gene CA9; recombinant, obtained in-house
The gist of the method:
as §1

Assay [3] deals with T3, CA XII (Homo sapiens, UniProt O43570).
T3 construct: gene CA12; recombinant, obtained in-house
T3 sequence (O43570 25-354): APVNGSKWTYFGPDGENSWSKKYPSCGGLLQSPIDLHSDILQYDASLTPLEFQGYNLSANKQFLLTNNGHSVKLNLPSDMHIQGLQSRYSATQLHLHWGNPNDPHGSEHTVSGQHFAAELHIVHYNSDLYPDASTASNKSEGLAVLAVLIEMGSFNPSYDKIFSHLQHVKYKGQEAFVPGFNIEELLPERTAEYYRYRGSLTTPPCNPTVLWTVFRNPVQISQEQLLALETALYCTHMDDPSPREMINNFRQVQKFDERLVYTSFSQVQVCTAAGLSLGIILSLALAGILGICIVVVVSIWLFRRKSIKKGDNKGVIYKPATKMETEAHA
The gist of the method: as §1

The target of assay [4] is T4, CA VII (Homo sapiens, UniProt P43166).
T4 construct: gene CA7; recombinant, obtained in-house
T4 sequence (P43166 whole entry): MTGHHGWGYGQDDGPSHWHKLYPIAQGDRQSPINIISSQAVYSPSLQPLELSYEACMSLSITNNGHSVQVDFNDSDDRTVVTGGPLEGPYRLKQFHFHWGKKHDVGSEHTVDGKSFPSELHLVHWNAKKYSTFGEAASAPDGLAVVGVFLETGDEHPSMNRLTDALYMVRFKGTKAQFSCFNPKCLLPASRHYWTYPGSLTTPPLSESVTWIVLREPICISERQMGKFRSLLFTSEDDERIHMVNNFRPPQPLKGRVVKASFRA
The gist of the method: as §1

The target of assay [5] is T5, CA I (Homo sapiens, UniProt P00915).
T5 construct: gene CA1; recombinant, obtained in-house
T5 sequence (P00915 2-261): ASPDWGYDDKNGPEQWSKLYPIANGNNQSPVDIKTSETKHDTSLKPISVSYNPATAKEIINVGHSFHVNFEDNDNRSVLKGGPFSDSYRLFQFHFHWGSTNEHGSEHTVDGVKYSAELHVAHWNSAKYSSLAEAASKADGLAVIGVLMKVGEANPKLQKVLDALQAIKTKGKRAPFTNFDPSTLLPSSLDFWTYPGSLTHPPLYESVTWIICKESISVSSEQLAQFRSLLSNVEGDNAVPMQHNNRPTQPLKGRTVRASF
The gist of the method: as §1

Where two headings read alike, the source gives them in different places.

As for `NS(=O)(=O)c1ccc(NC(=O)N2N=C(c3ccc(Cl)cc3)CC2c2ccc(Cl)cc2Cl)cc1` (stereo not shown) [compound 17, 3-(4-Chlorophenyl)-5-(2,4-dichlorophenyl)-N-(4-sulfamoylphenyl)-4,5-dihydro-1H-pyrazole-1-carboxamide], the Ki in assay [1] worked out at 13.5 nM; in assay [2] (read-out: KI (nM) / CA IX), 15 nM; in assay [3] it was 1.3 nM; in assay [4], 27.6 nM; in assay [5], 770 nM.

For the molecule `NS(=O)(=O)c1ccc(NC(=O)N2N=C(c3ccc(Cl)cc3)CC2c2ccc(Cl)cc2)cc1` (stereo not shown) [compound 14, 3,5-Bis(4-chlorophenyl)-N-(4-sulfamoylphenyl)-4,5-dihydro-1H-pyrazole-1-carboxamide], the Ki was 12.7 nM in assay [1]; 11.4 nM in assay [2] (read-out: KI (nM) / CA IX); 1.1 nM in assay [3]; 3.3 nM in assay [4]; 238 nM in assay [5].

Regarding `NS(=O)(=O)c1ccc(NC(=O)N2N=C(c3ccccc3)CC2c2ccc(Cl)cc2)cc1` (stereo not shown) [compound 6, 5-(4-Chlorophenyl)-3-phenyl-4,5-dihydro-pyrazole-1-carboxylic acid (4-sulfamoyl-phenyl)-amide], the Ki came out at 8.2 nM in assay [1]; 1.4 nM in assay [2] (read-out: KI (nM) / CA IX); 1.2 nM in assay [3]; 7.7 nM in assay [4]; 36.2 nM in assay [5].

In the case of `NS(=O)(=O)c1ccc(NC(=O)N2N=C(c3ccccc3)CC2c2c3ccccc3cc3ccccc23)cc1` (stereo not shown) [compound 10, 5-Anthracene-9-yl-3-phenyl-4,5-dihydro-pyrazole-1-carboxylic acid (4-sulfamoyl-phenyl)-amide], the Ki in assay [1] was 7.1 nM; in assay [2] (read-out: KI (nM) / CA IX), 1.3 nM; in assay [3], 6.8 nM; in assay [4], 2.4 nM; in assay [5], 293 nM.

Consider `Cc1ccc(C2CC(c3ccc(Cl)cc3)=NN2C(=O)Nc2ccc(S(N)(=O)=O)cc2)cc1` (stereo not shown) [compound 13, 3-(4-Chlorophenyl)-N-(4-sulfamoylphenyl)-5-(p-tolyl)-4,5-dihydro-1H-pyrazole-1-carboxamide], for which the Ki amounted to 12.3 nM in assay [1]; 2.9 nM in assay [2] (read-out: KI (nM) / CA IX); 9.2 nM in assay [3]; 4.5 nM in assay [4]; 66.7 nM in assay [5].

As to `NS(=O)(=O)c1ccc(NC(=O)N2N=C(c3ccc(Br)cc3)CC2c2ccc(F)cc2)cc1` (stereo not shown) [compound 25, 3-(4-Bromophenyl)-5-(4-flurophenyl)-4,5-dihydro-pyrazole-1-carboxylic acid (4-sulfamoyl-phenyl)-amide], the Ki in assay [1] was 5.5 nM; in assay [2] (read-out: KI (nM) / CA IX), 1.4 nM; in assay [3], 2.4 nM; in assay [4] it was 2.6 nM; in assay [5], 38.2 nM.

Consider `COc1ccc(C2CC(c3ccc(Cl)cc3)=NN2C(=O)Nc2ccc(S(N)(=O)=O)cc2)cc1OC` (stereo not shown) [compound 22, 3-(4-Chlorophenyl)-5-(3,4-dimethoxyphenyl)-N-(4-sulfamoylphenyl)-4,5-dihydro-1H-pyrazole-1-carboxamide], for which the Ki was 9.3 nM in assay [1]; 2.2 nM in assay [2] (read-out: KI (nM) / CA IX); 1.5 nM in assay [3]; 2.3 nM in assay [4]; 166 nM in assay [5].

In the case of `NS(=O)(=O)c1ccc(NC(=O)N2N=C(c3ccccc3)CC2c2cccs2)cc1` (stereo not shown) [compound 9, 3-Phenyl-5-thiophene-2-yl-4,5-dihydro-pyrazole-1-carboxylic acid (4-sulfamoyl-phenyl)-amide], the Ki in assay [1] came to 5.2 nM; in assay [2] (read-out: KI (nM) / CA IX), 1.4 nM; in assay [3], 2.5 nM; in assay [4], 1.9 nM; in assay [5] it was 185 nM.

`NS(=O)(=O)c1ccc(NC(=O)N2N=C(c3ccc(Br)cc3)CC2c2ccccc2)cc1` (stereo not shown) [compound 23, 3-(4-Bromophenyl)-5-phenyl-45-dihydro-pyrazole-1-carboxylic acid (4-sulfamoyl-phenyl)-amide]: the Ki in assay [1] came to 6.3 nM; in assay [2] (read-out: KI (nM) / CA IX) it was 1.4 nM; in assay [3] it was 6.7 nM; in assay [4] it was 2.9 nM; in assay [5], 44.4 nM.

As for `NS(=O)(=O)c1ccc(NC(=O)N2N=C(c3ccccc3)CC2c2ccccc2)cc1` (stereo not shown) [compound 5, 3,5-Diphenyl-4,5-dihydro-pyrazole-1-carboxylic acid (4-sulfamoyl-phenyl)-amide], the Ki in assay [1] came to 67.3 nM; in assay [2] (read-out: KI (nM) / CA IX) it was 1.3 nM; in assay [3], 7.7 nM; in assay [4], 33.2 nM; in assay [5] it was 382 nM.

For the molecule `COc1ccc(C2CC(c3ccc(Cl)cc3)=NN2C(=O)Nc2ccc(S(N)(=O)=O)cc2)cc1` (stereo not shown) [compound 21, 3-(4-Chlorophenyl)-5-(4-methoxyphenyl)-N-(4-sulfamoylphenyl)-4,5-dihydro-1H-pyrazole-1-carboxamide], the Ki in assay [1] came out at 9.4 nM; in assay [2] (read-out: KI (nM) / CA IX) it was 2.8 nM; in assay [3] it was 0.82 nM; in assay [4], 2.7 nM; in assay [5], 368 nM.

For `NS(=O)(=O)c1ccc(NC(=O)N2N=C(c3ccc(Br)cc3)CC2c2ccc(Cl)cc2)cc1` (stereo not shown) [compound 24, 3-(4-Bromophenyl)-5-(4-chlorophenyl)-4,5-dihydro-pyrazole-1-carboxylic acid (4-sulfamoyl-phenyl)-amide], the Ki in assay [1] amounted to 10.7 nM; in assay [2] (read-out: KI (nM) / CA IX), 14.3 nM; in assay [3] it was 0.89 nM; in assay [4], 2.7 nM; in assay [5] it was 45.5 nM.

Turning to `NS(=O)(=O)c1ccc(NC(=O)N2N=C(c3ccc(Cl)cc3)CC2c2ccccc2O)cc1` (stereo not shown) [compound 20, 3-(4-Chlorophenyl)-5-(2-hydroxyphenyl)-N-(4-sulfamoylphenyl)-4,5-dihydro-1H-pyrazole-1-carboxamide], the Ki in assay [1] is 7.6 nM; in assay [2] (read-out: KI (nM) / CA IX) it was 76.6 nM; in assay [3], 0.99 nM; in assay [4], 2.1 nM; in assay [5], 74.2 nM.

Consider `NS(=O)(=O)c1ccc(NC(=O)N2N=C(c3ccc(Cl)cc3)CC2c2c(F)cccc2Cl)cc1` (stereo not shown) [compound 19, 5-(2-Chloro-6-fluorophenyl)-3-(4-chlorophenyl)-N-(4-sulfamoylphenyl)-4,5-dihydro-1H-pyrazole-1-carboxamide], for which the Ki in assay [1] worked out at 10.8 nM; in assay [2] (read-out: KI (nM) / CA IX) it was 2.7 nM; in assay [3], 6.8 nM; in assay [4] it was 2.3 nM; in assay [5], 42.7 nM.

With `NS(=O)(=O)c1ccc(NC(=O)N2N=C(c3ccc(Cl)cc3)CC2c2ccccc2)cc1` (stereo not shown) [compound 12, 3-(4-Chlorophenyl)-5-phenyl-N-(4-sulfamoylphenyl)-4,5-dihydro-1H-pyrazole-1-carboxamide], the Ki in assay [1] was 233 nM; in assay [2] (read-out: KI (nM) / CA IX), 16.5 nM; in assay [3], 9.2 nM; in assay [4], 350 nM; in assay [5] it was 239 nM.

With `NS(=O)(=O)c1ccc(NC(=O)N2N=C(c3ccccc3)CC2c2c(F)cccc2Cl)cc1` (stereo not shown) [compound 8, 5-(2-Chloro-6-fluorophenyl)-3-phenyl-4,5-dihydro-pyrazole-1-carboxylic acid (4-sulfamoyl-phenyl)-amide], the Ki in assay [1] turned out to be 5.2 nM; in assay [2] (read-out: KI (nM) / CA IX), 1.5 nM; in assay [3], 1.4 nM; in assay [4], 2.4 nM; in assay [5] it was 38.3 nM.

On to `NS(=O)(=O)c1ccc(NC(=O)N2N=C(c3ccc(Cl)cc3)CC2c2cccs2)cc1` (stereo not shown) [compound 18, 3-(4-Chlorophenyl)-N-(4-sulfamoylphenyl)-5-(thiophen-2-yl)-4,5-dihydro-1H-pyrazole-1-carboxamide], for which the Ki in assay [1] is 9.2 nM; in assay [2] (read-out: KI (nM) / CA IX), 2.5 nM; in assay [3], 0.62 nM; in assay [4], 2.9 nM; in assay [5] it was 726 nM.

Take `NS(=O)(=O)c1ccc(NC(=O)N2N=C(c3ccccc3)CC2c2ccc(F)cc2)cc1` (stereo not shown) [compound 7, 5-(4-Flurophenyl)-3-phenyl-4,5-dihydro-pyrazole-1-carboxylic acid (4-sulfamoyl-phenyl)-amide]: the Ki in assay [1] turned out to be 58.2 nM; in assay [2] (read-out: KI (nM) / CA IX), 1.5 nM; in assay [3] it was 6.3 nM; in assay [4], 2.3 nM; in assay [5], 252 nM.

As for `NS(=O)(=O)c1ccc(NC(=O)N2N=C(c3ccc(Cl)cc3)CC2c2ccc(F)cc2)cc1` (stereo not shown) [compound 15, 3-(4-Chlorophenyl)-5-(4-fluorophenyl)-N-(4-sulfamoylphenyl)-4,5-dihydro-1H-pyrazole-1-carboxamide], the Ki in assay [1] turned out to be 71.3 nM; in assay [2] (read-out: KI (nM) / CA IX), 2.7 nM; in assay [3] it was 1 nM; in assay [4] it was 3.2 nM; in assay [5] it was 617 nM.

`NS(=O)(=O)c1ccc(NC(=O)N2N=C(c3ccc(Cl)cc3)CC2c2ccccc2Cl)cc1` (stereo not shown) [compound 16, 5-(2-Chlorophenyl)-3-(4-chlorophenyl)-N-(4-sulfamoylphenyl)-4,5-dihydro-1H-pyrazole-1-carboxamide]: the Ki turned out to be 8.8 nM in assay [1]; 8 nM in assay [2] (read-out: KI (nM) / CA II); 1.7 nM in assay [3]; 4.3 nM in assay [4]; 297 nM in assay [5].
